Source: ChEMBL document CHEMBL3864158, “Syntheses, cytotoxic activity evaluation and HQSAR study of 1,2,3-triazole-linked isosteviol derivatives as potential anticancer agents” (Bioorg Med Chem Lett, 2016)

What was measured:
[1] = Cytotoxicity against human HCT116 cells assessed as decrease in cell proliferation after 72 hrs by MTT assay; type: functional, cell-based; settings: HCT-116, 72 h
[2] = Cytotoxicity against human JeKo1 cells assessed as decrease in cell proliferation after 72 hrs by MTT assay; type: functional, cell-based; settings: JeKo-1, 72 h

Structure (SMILES) | IC50 [1] [µM] | IC50 [2] [µM]
CC(=O)O[C@@H]1O[C@H](n2cc(COC(=O)[C@]3(C)CCC[C@@]4(C)[C@H]5CC[C@@]6(C)C[C@]5(CC[C@@H]43)CC6=O)nn2)[C@@H](OC(C)=O)[C@@H](OC(C)=O)[C@H]1OC(C)=O | 19.3 | 26.3
CCOC(=O)[C@]1(C)CCC[C@@]2(C)[C@@H]3CC[C@@]4(C)C[C@]3(CC[C@@H]21)[C@H](Cn1cc(COc2ccc(C=O)cc2OC)nn1)[C@H]4O | 4.04 | 7.09
CCOC(=O)[C@]1(C)CCC[C@@]2(C)[C@@H]3CC[C@@]4(C)C[C@]3(CC[C@@H]21)C[C@H]4n1cc(COC(=O)[C@]2(C)CCC[C@@]3(C)[C@@H]4CC[C@@]5(C)C[C@]4(CC[C@@H]32)CC5=O)nn1 | 126 | 15.3
CCOC(=O)[C@]1(C)CCC[C@@]2(C)[C@@H]3CC[C@@]4(C)C[C@]3(CC[C@@H]21)[C@H](Cn1cc(-c2ccccc2)nn1)[C@H]4O | 8.57 | 18.8
CCOC(=O)[C@]1(C)CCC[C@@]2(C)[C@@H]3CC[C@@]4(C)C[C@]3(CC[C@@H]21)[C@H](CN=[N+]=[N-])[C@H]4O | 14.8 | 31.2
CCOC(=O)[C@]1(C)CCC[C@@]2(C)[C@@H]3CC[C@@]4(C)C[C@]3(CC[C@@H]21)[C@H](Cn1cc(CO)nn1)[C@H]4O | 19.6 | 32.3
CCOC(=O)[C@]1(C)CCC[C@@]2(C)[C@@H]3CC[C@@]4(C)C[C@]3(CC[C@@H]21)C[C@@H]4n1cc(COc2cccc(C=O)c2)nn1 | 6.5 | 9.5
CCOC(=O)[C@]1(C)CCC[C@@]2(C)[C@@H]3CC[C@@]4(C)C[C@]3(CC[C@@H]21)C[C@@H]4n1cc(COc2ccc(C=O)cc2OC)nn1 | 7.18 | 10.9
CCOC(=O)[C@]1(C)CCC[C@@]2(C)[C@@H]3CC[C@@]4(C)C[C@]3(CC[C@@H]21)[C@H](Cn1cc(COc2cccc(C=O)c2)nn1)[C@H]4O | 4.64 | 15.6
CCOC(=O)[C@]1(C)CCC[C@@]2(C)[C@@H]3CC[C@@]4(C)C[C@]3(CC[C@@H]21)C[C@H]4OS(=O)(=O)c1ccc(C)cc1 | 51.4 | 9.75
C[C@@]12CC[C@@H]3[C@@](CC[C@H]4[C@@]3(C)CCC[C@@]4(C)C(=O)O)(CC1=O)C2 [ISOSTEVIOL] | > 150 | > 150
CCOC(=O)[C@]1(C)CCC[C@@]2(C)[C@@H]3CC[C@@]4(C)C[C@]3(CC[C@@H]21)C[C@@H]4n1cc(COc2ccc(C=O)cc2)nn1 | 8.2 | 11.7
CCOC(=O)[C@]1(C)CCC[C@@]2(C)[C@@H]3CC[C@@]4(C)C[C@]3(CC[C@@H]21)C[C@@H]4n1cc(-c2ccccc2)nn1 | 48.4 | 95.9
CCOC(=O)[C@]1(C)CCC[C@@]2(C)[C@@H]3CC[C@@]4(C)C[C@]3(CC[C@@H]21)[C@H](Cn1cc(COc2ccc(C(C)=O)cc2)nn1)[C@H]4O | 8.15 | 19.6
CCOC(=O)[C@]1(C)CCC[C@@]2(C)[C@@H]3CC[C@@]4(C)C[C@]3(CC[C@@H]21)C[C@@H]4N=[N+]=[N-] | 46.1 | 55.2
C#CCOC(=O)[C@]1(C)CCC[C@@]2(C)[C@@H]3CC[C@@]4(C)C[C@]3(CC[C@@H]21)CC4=O | 27.1 | 24.7
CCOC(=O)[C@]1(C)CCC[C@@]2(C)[C@@H]3CC[C@@]4(C)C[C@]3(CC[C@@H]21)C[C@@H]4n1cc(COc2ccccc2C=O)nn1 | 3.8 | 12.2
CCOC(=O)[C@]1(C)CCC[C@@]2(C)[C@@H]3CC[C@@]4(C)C[C@]3(CC[C@@H]21)C[C@@H]4n1cc(COc2ccc(C(=O)O)cc2)nn1 | 11.8 | 54.4
CCOC(=O)[C@]1(C)CCC[C@@]2(C)[C@@H]3CC[C@@]4(C)C[C@]3(CC[C@@H]21)[C@H](Cn1cc(COc2ccc(C=O)cc2)nn1)[C@H]4O | 6.62 | 16.4
CCOC(=O)[C@]1(C)CCC[C@@]2(C)[C@@H]3CC[C@@]4(C)C[C@]3(CC[C@@H]21)[C@H](Cn1cc(COc2ccccc2C=O)nn1)[C@H]4O | 2.99 | 12.7
CCOC(=O)[C@]1(C)CCC[C@@]2(C)[C@@H]3CC[C@@]4(C)C[C@]3(CC[C@@H]21)C[C@@H]4n1cc(COc2ccc(C(C)=O)cc2)nn1 | 9.62 | 13.9
